Where “and” joins values, the source holds several entries; their conditions need not be identical. Equal values may be shown once.
What was measured:
[1] = Urinary creatine excretion (24 h collections: 0-24, 24-48, 0-48 h) after administration of the solutions; format: in vivo, human; conditions: p<0.05
Description: (§1) Measurement of creatine levels in the plasma preferably involves removing venous blood from the dorsal surface of a heated hand immediately before and 20, 40, and 60 min after the ingestion of a supplement. In addition, urine may be collected before and on the day of ingestion of a supplement. Plasma and urine creatine may be measured using high performance liquid chromatography and serum insulin was measured using a radioimmunoassay technique, an example of which is described in U.S. Pat. No. 5,968,900, which is fully incorporated herein by reference.
Urinary Creatine Content:
Three 24 h hour urinary collections were obtained from each volunteer for each arm of the study. The first collection (baseline) was completed prior to administration of the solution. The second collection (0-24 h) was initiated immediately after the administration of the first solution, until 24 h post administration. […] The volume of the urine excreted was recorded and a 5 ml sample was frozen at −20° C. until analysis. The samples were analyzed for Cr and Crn.
To calculate the total creatine (TCr) the Cr and Crn were added together. The TCr increase was calculated by subtracting the baseline TCr from the 0-24 h excretion and/or the 24-48 h excretion. The 0-48 h content was calculated by adding the 0-24 h TCr with the 24-48 h TCr increase in excretion. […]

[2] = human, in vivo
Description: as §1
(§2) Protocol: The volunteers were required to attend to the lab for 3 trials. Each consisted of an afternoon arm, and a morning arm. Each arm lasted for approximately 4 hours. The volunteers were asked to relax on a bed. A baseline blood sample was taken. Each solution was administered via a nasogastric tube (mean time of administration was approximately 7 minutes). Half-way through the administration, the stop clock was started. After the three hour protocol, a second solution was administered. The third solution was administered in the following morning arm of the trial. Each trial was separated by at least 12 days.
(§3) Each solution was administered via a nasogastric tube three times over 24 hours. A total amount of 15 g or Cr was administered.
Blood sampling: Blood samples were collected for three hours after administration of the solution. […]

serum insulin = assay: Serum insulin concentration and area under the concentration time curve after oral challenge (nasogastric) in healthy male volunteers; format: in vivo, human
Description: as §1
Aim: The aim of this study was to identify a supplement that would optimize the augmentation of Cr retention after its supplementation, by increasing the insulinotropic effect, whilst consuming a lower carbohydrate load.
Study design: Randomized, double-blind, placebo controlled, cross-over design.
Volunteers: 7 healthy male volunteers. All volunteers were eligible to participate after satisfactory results from the medical screening.
as §2, §3
Blood sampling: Blood samples were collected for three hours after administration of the solution. Eleven blood samples obtained (including baseline sample). For the first hour after administration of the solution, a blood sample was obtained at 15 minute intervals. During the second and third hour of sampling, the intervals were increased to 20 minutes. Approximately 3 ml of blood was transferred to a lithium heparin containing tube and a further 3 ml were allowed to clot for plasma Cr and creatinine (Crn), and serum insulin analysis respectively.
Statistical analysis: A two-way repeated measure ANOVA statistical test was used. Significance was set at p<0.05. When a significant difference was observed, Fisher's post hoc analysis was performed in order to locate the difference. All individual results are included in the appendix.

[3] = system: skeletal muscle total creatine; conditions: cited from earlier work

For `CN(CC(=O)O)C(=N)N` [C, creatine], the “urinary creatine content compared to CHO and PAC” value ([1]; FIG. 11, 0-24 h) was “significantly greater”, the “urinary creatine content compared to CHO and PAC” value ([1]; FIG. 13, 0-48 h following supplementation) was “significantly greater” and the “plasma creatine AUC compared to CHO and PAC” value [2] was “significantly greater”. For the same molecule, the “serum insulin concentration compared to PAC” value (serum insulin; FIG. 1, first oral challenge, from 15-140 min) was “significantly lower”, the “serum insulin concentration compared to CHO” value (serum insulin; FIG. 1, first oral challenge, from 15-160 min) was “significantly lower” and the “serum insulin concentration compared to CHO and PAC” value (serum insulin; FIG. 2, third oral challenge, from 15-160 min) was “significantly lower”. For the same molecule, the “serum insulin AUC compared to CHO and PAC” value (serum insulin; FIG. 3, 80 min following the first oral challenge, p=0.02) was “significantly lower”, the “serum insulin AUC compared to CHO and PAC” value (serum insulin; FIG. 4, 180 min following the first oral challenge, p=0.015) was “significantly lower” and the “serum insulin AUC compared to CHO and PAC” value (serum insulin; FIG. 5, 80 min following the third oral challenge, p<0.001) was “significantly lower”. For the same molecule, the “serum insulin AUC compared to CHO and PAC” value (serum insulin; FIG. 6, 180 min following the first oral challenge (so in the source), p<0.001) was “significantly lower”, the “insulin area under the time curve response” value (“insulin area” for short) (serum insulin; first oral challenge, 0-80 min (as headed), individual subject) was −235 mU/l/min and −127 mU/l/min and −112 mU/l/min and −166 mU/l/min and −146 mU/l/min and −714 mU/l/min and −566 mU/l/min and the “insulin area” value (serum insulin; first oral challenge, 0-80 min (as headed), mean of 7 subjects) was −295 mU/l/min. The “insulin area” value (serum insulin; first oral challenge, 0-180 min (as headed), individual subject) was −32 mU/l/min and −48 mU/l/min and −50 mU/l/min and 21 mU/l/min and −11 mU/l/min and −299 mU/l/min and −186 mU/l/min, the “insulin area” value (serum insulin; first oral challenge, 0-180 min (as headed), mean of 7 subjects) was −86 mU/l/min and the serum insulin concentration (serum insulin; first oral challenge, 45 min, individual subject) was 9.02 mU/l and 7.85 mU/l and 9.58 mU/l and 10.16 mU/l and 9.61 mU/l and 9.34 mU/l and 11.85 mU/l. For the same molecule, the serum insulin concentration (serum insulin; first oral challenge, 45 min, mean of 7 subjects) was 9.63 mU/l, the serum insulin concentration (serum insulin; first oral challenge, 60 min, individual subject) was 9.17 mU/l and 7.54 mU/l and 9.74 mU/l and 8.51 mU/l and the “insulin area” value (serum insulin; third oral challenge, 0-80 min, individual subject) was 10 mU/l/min (2×) and −7 mU/l/min and −23 mU/l/min and 132 mU/l/min and −34 mU/l/min and −18 mU/l/min. For the same molecule, the “insulin area” value (serum insulin; third oral challenge, 0-80 min, mean of 7 subjects) was 10 mU/l/min, the “insulin area” value (serum insulin; third oral challenge, 0-180 min, individual subject) was 274 mU/l/min (2×) and −63 mU/l/min and −109 mU/l/min and 195 mU/l/min and 1406 mU/l/min and −99 mU/l/min and the “insulin area” value (serum insulin; third oral challenge, 0-180 min, mean of 7 subjects) was 268 mU/l/min. The serum insulin concentration (serum insulin; third oral challenge, 0 min, individual subject) was 8.91 mU/l (2×) and 8.31 mU/l and 10.38 mU/l and 9.64 mU/l and 10.31 mU/l and 8.65 mU/l, the serum insulin concentration (serum insulin; third oral challenge, 0 min, mean of 7 subjects) was 9.30 mU/l and the serum insulin concentration (serum insulin; third oral challenge, 15 min, individual subject) was 8.94 mU/l (2×) and 7.78 mU/l and 10.23 mU/l and 9.84 mU/l and 10.29 mU/l and 11.08 mU/l. The serum insulin concentration (serum insulin; third oral challenge, 15 min, mean of 7 subjects) was 9.59 mU/l, the serum insulin concentration (serum insulin; third oral challenge, 30 min, individual subject) was 9.44 mU/l (2×) and 7.90 mU/l and 10.92 mU/l and 10.89 mU/l and 9.80 mU/l and 11.61 mU/l and the serum insulin concentration (serum insulin; third oral challenge, 30 min, mean of 7 subjects) was 10.00 mU/l. For the same molecule, the serum insulin concentration (serum insulin; third oral challenge, 45 min, individual subject) was 8.87 mU/l (2×) and 7.24 mU/l and 9.56 mU/l and 9.07 mU/l and 10.07 mU/l and 9.32 mU/l, the serum insulin concentration (serum insulin; third oral challenge, 45 min, mean of 7 subjects) was 9.00 mU/l and the serum insulin concentration (serum insulin; third oral challenge, 60 min, individual subject) was 8.92 mU/l (2×) and 7.99 mU/l and 10.03 mU/l and 8.61 mU/l and 9.69 mU/l and 10.81 mU/l. For the same molecule, the serum insulin concentration (serum insulin; third oral challenge, 60 min, mean of 7 subjects) was 9.28 mU/l, the serum insulin concentration (serum insulin; third oral challenge, 80 min, individual subject) was 9.06 mU/l (2×) and 8.54 mU/l and 9.79 mU/l and 9.45 mU/l and 10.22 mU/l and 8.93 mU/l and the serum insulin concentration (serum insulin; third oral challenge, 80 min, mean of 7 subjects) was 9.29 mU/l. For the same molecule, the serum insulin concentration (serum insulin; third oral challenge, 100 min, individual subject) was 8.54 mU/l (2×) and 8.56 mU/l and 9.59 mU/l (2×) and 9.34 mU/l and 9.38 mU/l, the serum insulin concentration (serum insulin; third oral challenge, 100 min, mean of 7 subjects) was 9.08 mU/l and the serum insulin concentration (serum insulin; third oral challenge, 120 min, individual subject) was 8.76 mU/l (2×) and 8.20 mU/l and 10.07 mU/l and 8.48 mU/l and 10.27 mU/l and 9.10 mU/l. For the same molecule, the serum insulin concentration (serum insulin; third oral challenge, 120 min, mean of 7 subjects) was 9.09 mU/l, the serum insulin concentration (serum insulin; third oral challenge, 140 min, individual subject) was 8.29 mU/l (2×) and 8.44 mU/l and 8.57 mU/l and 8.55 mU/l and 8.56 mU/l and 9.20 mU/l and the serum insulin concentration (serum insulin; third oral challenge, 140 min, mean of 7 subjects) was 8.56 mU/l. For the same molecule, the serum insulin concentration (serum insulin; third oral challenge, 160 min, individual subject) was 8.69 mU/l (2×) and 8.34 mU/l and 8.66 mU/l and 10.01 mU/l and 9.02 mU/l and 9.73 mU/l, the serum insulin concentration (serum insulin; third oral challenge, 160 min, mean of 7 subjects) was 9.02 mU/l and the serum insulin concentration (serum insulin; third oral challenge, 180 min, individual subject) was 8.58 mU/l (3×) and 8.61 mU/l and 8.56 mU/l and 9.43 mU/l and 9.04 mU/l. It also gave a serum insulin concentration (serum insulin; third oral challenge, 180 min, mean of 7 subjects) of 8.77 mU/l.
In the case of `CN(CC(=O)O)C(=N)N` [carbohydrate free creatine, creatine], the “increase of total muscle creatine” value ([3]; 5 g creatine four times a day for 5 days) is given as “about 20 mmol/kg dm”.
In the case of `CN(CC(=O)O)C(=N)N` [creatine, N-methyl-N-guanyl glycine], the “increase of muscle total creatine content, on average” value ([3]; 20 g/day for 5 days) is listed as 20% and the “increase in human skeletal muscle total creatine (phosphocreatine and free creatine) stores” value ([3]; dietary creatine supplementation) is listed as 20-50%.
